In the OligoGym collection one finds normalised inhibition (eCFP-eYFP dual reporter) data, which are given here for 19 substances.

Oligonucleotides are written 5' to 3', each unit as a sugar letter and its base; * is a phosphorothioate linkage, no mark a phosphodiester; rarer units and linkages stand in square brackets, end groups in braces. Plain capitals give the bases only. d = 2'-deoxy (DNA); r = 2'-OH (RNA)
Note: test concentration or dose not given here.

In this series the target is UBE2J1. Kind of series: reporter assay of Huesken 2005. Conditions: siRNA. For orientation: Reporter assays use an easily measured gene product as a stand-in for the process of interest.
On to “sense rArUrUrUrArCrArArGrArUrGrArUrArUrArCrCdTdT / antisense rGrGrUrArUrArUrCrArUrCrUrUrGrUrArArArUdCdA”, for which the normalised inhibition (eCFP-eYFP dual reporter) worked out at 47.6%. As for “sense rCrArArArUrArArGrCrUrUrUrArArGrGrCrArGdTdT / antisense rCrUrGrCrCrUrUrArArArGrCrUrUrArUrUrUrGdCdC”, the normalised inhibition (eCFP-eYFP dual reporter) amounted to 56%. As for “sense rCrArCrCrArGrCrCrArArGrArGrArCrArArCrCdTdT / antisense rGrGrUrUrGrUrCrUrCrUrUrGrGrCrUrGrGrUrGdGdC”, the figure is 55.8%. “sense rCrArGrArArGrUrCrArArUrUrCrArUrCrUrGrGdTdT / antisense rCrCrArGrArUrGrArArUrUrGrArCrUrUrCrUrGdCdC” returned a normalised inhibition (eCFP-eYFP dual reporter) of 60.5%. As for “sense rCrArUrCrUrCrArGrGrCrCrArUrCrArUrCrCrUdTdT / antisense rArGrGrArUrGrArUrGrGrCrCrUrGrArGrArUrGdCdT”, the normalised inhibition (eCFP-eYFP dual reporter) was found to be 64.7%. “sense rCrCrCrArArCrCrUrGrUrArGrCrUrArArGrArAdTdT / antisense rUrUrCrUrUrArGrCrUrArCrArGrGrUrUrGrGrGdTdA” registered a normalised inhibition (eCFP-eYFP dual reporter) of 78.5%. With “sense rCrCrGrArUrUrUrUrGrArUrGrGrArGrGrArGrUdTdT / antisense rArCrUrCrCrUrCrCrArUrCrArArArArUrCrGrGdAdG”, the normalised inhibition (eCFP-eYFP dual reporter) is 48%. Turning to “sense rCrCrGrGrGrCrCrCrArGrCrArGrCrArGrArGrUdTdT / antisense rArCrUrCrUrGrCrUrGrCrUrGrGrGrCrCrCrGrGdCdG”, the normalised inhibition (eCFP-eYFP dual reporter) amounted to 47.4%. As for “sense rCrCrUrUrUrCrArUrCrArArCrCrUrArCrCrCrAdTdT / antisense rUrGrGrGrUrArGrGrUrUrGrArUrGrArArArGrGdAdT”, the normalised inhibition (eCFP-eYFP dual reporter) was 56.2%. As to “sense rCrUrCrUrUrArUrArUrUrCrCrGrArCrGrArArUdTdT / antisense rArUrUrCrGrUrCrGrGrArArUrArUrArArGrArGdCdT”, the normalised inhibition (eCFP-eYFP dual reporter) worked out at 98.8%. With “sense rCrUrGrArCrCrArArGrArArGrCrCrArArArGrAdTdT / antisense rUrCrUrUrUrGrGrCrUrUrCrUrUrGrGrUrCrArGdCdT” the figure was 73.1%. Regarding “sense rCrUrGrArCrUrUrUrGrGrCrArUrUrGrGrCrArGdTdT / antisense rCrUrGrCrCrArArUrGrCrCrArArArGrUrCrArGdGdA”, the normalised inhibition (eCFP-eYFP dual reporter) amounted to 76.4%. Regarding “sense rGrArArGrUrCrArArUrUrCrArUrCrUrGrGrArAdTdT / antisense rUrUrCrCrArGrArUrGrArArUrUrGrArCrUrUrCdTdG”, the normalised inhibition (eCFP-eYFP dual reporter) was found to be 75.3%. Turning to “sense rGrArCrCrArArGrArArGrCrCrArArArGrArArCdTdT / antisense rGrUrUrCrUrUrUrGrGrCrUrUrCrUrUrGrGrUrCdAdG”, the normalised inhibition (eCFP-eYFP dual reporter) was found to be 56.7%. The substance “sense rGrArGrCrArUrCrUrCrArGrGrCrCrArUrCrArUdTdT / antisense rArUrGrArUrGrGrCrCrUrGrArGrArUrGrCrUrCdAdA” had a normalised inhibition (eCFP-eYFP dual reporter) of 64.1%. With “sense rGrArGrUrArUrArArGrGrArCrArGrCrArUrUrAdTdT / antisense rUrArArUrGrCrUrGrUrCrCrUrUrArUrArCrUrCdCdA”, the normalised inhibition (eCFP-eYFP dual reporter) turned out to be 91.4%. With “sense rGrArGrUrCrArGrArCrUrUrArArArCrCrArCrUdTdT / antisense rArGrUrGrGrUrUrUrArArGrUrCrUrGrArCrUrCdAdG” the figure was 88.7%; with “sense rGrCrArGrArArGrUrCrArArUrUrCrArUrCrUrGdTdT / antisense rCrArGrArUrGrArArUrUrGrArCrUrUrCrUrGrCdCdT”, 54.4%; with “sense rGrCrCrArCrCrArGrArGrUrArUrCrCrCrArUrGdTdT / antisense rCrArUrGrGrGrArUrArCrUrCrUrGrGrUrGrGrCdAdG”, 53.6%.
